Experiments:
[1] = tested on: nociceptive flexor reflexes; conditions: Willer, 1985; cited from earlier work
[2] = all 20 subjects, i.v. computer-controlled infusion

Row | SMILES | reflex threshold of nociceptive flexor reflexes after application of the analgetic [1] | median effect compartment concentration at loss of reaction to repeated verbal commands ([2]; median) | range of effect compartment concentration at loss of reaction to repeated verbal commands ([2]; range)
1 | CN1CC[C@]23c4c5ccc(O)c4O[C@H]2[C@@H](O)C=C[C@H]3[C@H]1C5 [morphine] | changed in a concentration dependent manner | – | –
2 | CC(C)c1cccc(C(C)C)c1O [propofol, 2,6-diisopropylphenol] | – | 4 µg/mL | 2 to 5 µg/mL

Source: patent US20120226186A1 (priority 2009, published 2012)
